Experimental data taken from patent US11628163B2, “1-piperidinepropionic acid for treating a fibrosing disease” (UNIVERSITÀ DEGLI STUDI DI PADOVA, priority 2017, dated 2023).
“Also recorded” adds a separate entry of the source.

B1: SerpinB3: recombinant SerpinB3 (Squamous Cell Carcinoma Antigen, SCCA1), a serine protease inhibitor, added as exogenous stimulus (protein, UniProt P29508 1-390, looked up)
Serpin B3: MNSLSEANTKFMFDLFQQFRKSKENNIFYSPISITSALGMVLLGAKDNTAQQIKKVLHFDQVTENTTGKAATYHVDRSGNVHHQFQKLLTEFNKSTDAYELKIANKLFGEKTYLFLQEYLDAIKKFYQTSVESVDFANAPEESRKKINSWVESQTNEKIKNLIPEGNIGSNTTLVLVNAIYFKGQWEKKFNKEDTKEEKFWPNKNTYKSIQMMRQYTSFHFASLEDVQAKVLEIPYKGKDLSMIVLLPNEIDGLQKLEEKLTAEKLMEWTSLQNMRETRVDLHLPRFKVEESYDLKDTLRTMGMVDIFNGDADLSGMTGSRGLVLSGVLHKAFVEVTEEGAEAAAATAVVGFGSSPTSTNEEFHCNHPFLFFIRQNKTNSILFYGRFSSP

Tests used:
[1] = system: experimental murine model of steatohepatitis (NASH); experiment: Murine model of steatohepatitis (NASH): methionine- and choline-deficient diet (MCD), SerpinB3-transgenic and wild-type (C57BL/7) mice; assay type: in vivo; details: for liver histology: steatosis and lobular damage / relative liver weight (liver weight/body weight): MCD diet 8 weeks, i.p. daily from Week 4, PPA 0.01 μg/g or Curcumin 0.2 mg/g; for liver histology: steatosis and lobular damage: especially transgenic mice liver; for relative liver weight (liver weight/body weight): wild-type and SerpinB3-transgenic mice, more evident in transgenic mice
Experimental: PPA effect was also assessed in a murine model of fibrosing disease, in particular an experimental model of non-alcoholic steatohepatitis, which is a condition in which a fatty liver, associated with inflammation and fibrosis production, causes, among other things, a high risk of neoplastic transformation. In the study, both SerpinB3-transgenic mice and the respective wild-type (C57BL/7) strain were used, fed for 8 weeks with a methionine- and choline-deficient diet (MCD), which constitutes a recognized steatohepatitis induction model, or with a normal diet. MCD diet-treated transgenic and control mice groups starting from Week 4, were administered daily by intraperitoneal route, PPA (0.01 μg/g), or Curcumin (a molecule with a recognized anti-inflammatory and anti-fibrotic activity in animal models) as control, at standard concentrations (0.2 mg/g).
To assess PPA effect as SerpinB3 inhibitor in an experimental murine model of steatohepatitis (NASH), a condition with a high risk of hepatic tumor, both SerpinB3-transgenic mice and the respective wild-type (C57BL/7) strain were used.
The animals were fed for 8 weeks with a methionine- and choline-deficient diet (MCD), a recognized steatohepatitis induction model, or with a normal diet. MCD diet-treated transgenic and control mice groups, starting from Week 4, were administered daily, by intraperitoneal route, PPA (0.01 μg/g), or Curcumin (a molecule with a recognized anti-inflammatory and anti-fibrotic activity in animal models) as control, at the standard concentration of 0.2 mg/g. […] This effect was more evident in transgenic mice.

[2] = system: primary human monocytes; experiment: Release of soluble CD163 (sCD163) by primary human monocytes; assay type: cell-based
Experimental: PPA effect was evaluated in this context as well, where primary monocytes incubated 1 week with SerpinB3 at a concentration of 200 ng/ml alone, or in association with PPA (100 ng/ml) were used. Monocytes kept in culture medium and monocytes treated with PPA alone at the same concentrations were used as controls.

[3] = system: SerpinB3; experiment: SerpinB3 mRNA expression in HT29 tumor cells (real-time PCR); assay type: cell-based; details: 24 hours
Experimental: HT29 tumor cells, constitutively expressing SerpinB3, were used, […] cells/well were seeded into 6-well plates and kept 24 hours prior to treatment in modified McCoy medium (Sigma-Aldrich, Milan, Italy) supplemented with heat-inactivated 10% fetal calf serum, (Sigma-Aldrich, Milan, Italy), 100 U/ mL penicillin, […] streptomycin, and 20 mM L-glutamine (Sigma-Aldrich, Milan, Italy),
Then, PPA (1′-piperidinepropionic acid) was added, at a concentration of 100 ng/ml alone or in combination with recombinant SerpinB3 (SB3) at a concentration of 200 ng/ml, whereas the medium alone (untreated HT-29 cells) was added into control wells. After 24 hours of treatment cells were harvested, and extraction of total cell RNA and reverse transcription were performed according to standard protocols. mRNA SerpinB3 levels were measured by real-time PCR (sense: 5′-GCAAATGCTCCAGAAGAAAG-3′; reverse 5′-CGA GGC AAA ATGAAAA AGA TG-3′) and the results were normalized on the basis of data obtained with housekeeping HPRT1 (sense 5′-TCAGGCAGTATAATCC AAAGATGGT-3′; reverse 5′-[…] -3′).

[4] = SerpinB3 transgenic mice, MCD diet, PPA 0.01 μg/g i.p. daily from Week 4

Molecule | liver histology: steatosis and lobular damage [1] | liver histology: steatosis and lobular damage ([1]; listed as curcumin) | relative liver weight (liver weight/body weight) ([1]; listed as curcumin) | reduction of the inflammatory response ([1]; MCD diet, Curcumin 0.2 mg/g i.p. daily from Week 4) | sCD163 release in the culture medium after stimulation with SerpinB3 ([2]; primary monocytes, 1 week, SerpinB3 200 ng/ml + PPA 100 ng/ml) | spontaneous release of sCD163 ([2]; primary monocytes, PPA alone 100 ng/ml, compared with untreated monocytes) | SerpinB3 expression (mRNA) after induction from exogenous SerpinB3 ([3]; PPA 100 ng/ml + recombinant SerpinB3 200 ng/ml) | SerpinB3 expression (mRNA), constitutive ([3]; PPA 100 ng/ml alone, normalized to HPRT1) | relative liver weight (liver weight/body weight) [1] | IL-1 beta gene expression [1, 4] | Mcp1 gene expression [1, 4] | TNF-alpha gene expression [1, 4] | alpha-SMA (marker of stellate cell activation) gene expression ([1]; both strains (wild-type and SerpinB3-transgenic), MCD diet, PPA 0.01 μg/g i.p. daily from Week 4) | release of sCD163 induced by SerpinB3 ([2]; primary human monocytes, SerpinB3 200 ng/ml, preliminary results) | SerpinB3 expression (mRNA) after treatment with exogenous SerpinB3 ([3]; recombinant SerpinB3 200 ng/ml)
COc1cc(/C=C/C(=O)CC(=O)/C=C/c2ccc(O)c(OC)c2)ccc1O [Curcumin, reference compound] | reduced | more marked steatosis, associated with a higher relative liver weight, compared to mice MCD diet-fed, but treated with PPA or curcumin | higher relative liver weight, compared to mice MCD diet-fed, but treated with PPA or curcumin | obtained also with curcumin |  |  |  |  |  |  |  |  |  |  | 
O=C(O)CCN1CCCCC1 [PPA, 1-piperidinepropionic acid] | reduced; also recorded: more marked steatosis, associated with a higher relative liver weight, compared to mice MCD diet-fed, but treated with PPA or curcumin |  |  |  | markedly reduced | reduces | significantly reduce | significantly reduce; also recorded: inhibit SerpinB3 synthesis | reduced; also recorded: higher relative liver weight, compared to mice MCD diet-fed, but treated with PPA or curcumin; also recorded: higher relative liver weight (liver weight/body weight) after MCD diet, compared to mice treated with the same diet | significant decrease | significant decrease | increase was non-evident; also recorded: increase proved not evident | marked reduction |  | 
B1 |  |  |  |  |  |  |  |  |  |  |  |  |  | induces the release | increased
